In US11278525B1, “Further molecules, compositions and methods for modulation of SIRT6” (SirTLab Corporation, priority 2017, dated 2022):

Legend:
SIRT6 [1] = biological target: T1, SIRT6 (Homo sapiens, UniProt Q8N6T7); assay: SIRT6 enzymatic activity assay with fluorophore (AMC)-labeled Lysin-myristoylated histone H3 peptide (de-myristoylation, trypsin release); type: biochemical; design: six-histidine tag; made in house; host or cells: Escherichia coli BL21; conditions: for % activity 20 uM: compound 20 uM; for % activity 20 uM / % activity Max. conc. 100 uM: percentage of signal increase relative to control wells, Tables 1-2; for % activity Max. conc. 100 uM: compound 100 uM; for % Activity: amount tested 20 uM, Example 5, Table 9
T1 sequence (Q8N6T7 whole entry): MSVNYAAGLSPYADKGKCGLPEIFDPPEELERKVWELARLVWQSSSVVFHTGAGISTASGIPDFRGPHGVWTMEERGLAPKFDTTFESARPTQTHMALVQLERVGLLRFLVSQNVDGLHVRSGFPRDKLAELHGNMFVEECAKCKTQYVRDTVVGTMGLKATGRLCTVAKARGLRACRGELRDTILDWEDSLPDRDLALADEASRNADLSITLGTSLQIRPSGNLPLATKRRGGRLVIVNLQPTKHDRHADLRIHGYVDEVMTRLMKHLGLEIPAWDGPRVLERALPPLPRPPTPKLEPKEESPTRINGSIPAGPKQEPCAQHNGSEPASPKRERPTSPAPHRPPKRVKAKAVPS
Experimental: Human recombinant SIRT6 (sequence identifier: CAG33481.1; GI:4814651) was expressed in large scale in Escherichia coli strain BL21 as a six-histidine-tagged protein, after transformation of the expression plasmid pET28-SIRT6. The SIRT6 enzyme was purified from the bacteria culture broth in a two-step strategy. The first purification step was carried out by cation exchange chromatography on a HiTrap CM-Sepharose column (GE Healthcare) using an FPLC system. The second purification step was performed by immobilized metal ion affinity chromatography (IMAC) using a cobalt affinity column (Clontech).
The enzymatic activity assay is carried out in 96 or 384-well microplates using the purified recombinant SIRT6 and a fluorophore-labeled peptide substrate: 7-amino-4-methylcoumarin (AMC) that is quenched through conjugation to the C-terminal end of a Lysin-myristoylated histone H3 peptide. The activity assay procedure requires two steps, both performed in the same microplate. In the first step, the substrate is incubated with the purified SIRT6 protein along with the co-substrate nicotinamide adenine dinucleotide (NAD+). Upon de-myristoylation, the liberated ε-amino group of the lysine becomes a trypsin substrate. Treatment with trypsin in the second step releases the fluorophore resulting in an increase in fluorescence. Fluorescence intensity is measured using a fluorescent plate reader (excitation and emission at 370 nm and 450 nm, respectively). The fluorescence signal is directly proportional to SIRT6 enzymatic activity.
In the primary screening, compounds from a library (ChemDiv Inc.) were tested at a single concentration of 20 micromolar for their potential to modulate SIRT6 enzymatic activity. The assay was carried out in 384-well black well plates and all liquid handling was done using a robotic liquid handler. Purified recombinant SIRT6 (1 micromolar) was pre-incubated with each compound (or DMSO in control wells) for 15 minutes at room temperature. The first stage of the assay was initiated by adding a ‘substrate solution’ containing the myristoylated histone H3 peptide and NAD+(for final concentrations of 25 micromolar and 20 micromolar, respectively). After one hour incubation at 37° C., a Trypsin solution (6 mg/mL) was added for 30 minutes at room temperature. Fluorescence intensity was measured using a fluorescent plate reader (Tecan) with excitation at 370 nm and emission at 450 nm. The effect of each tested compound was evaluated by the change in the fluorescence intensity compared to control wells. […] To validate the primary screening results, each of the primary “hits” was re-tested, first at concentration of 20 micromolar in duplicates and later at a serial dilution ranging from 100 to 0.2 micromolar in triplicates.
Results of Assay—The results of the assay are given below in Tables 1-3.
Additional molecules were tested according to the methods and materials of Example 1. The amount tested was 20 uM for each molecule.

SIRT6 [2] = biological target: T1, SIRT6; assay: Secondary validation assays: HPLC deacylation, fluorometric deacetylation, in vitro histone deacetylation; type: biochemical; conditions: values only in FIGS. 1-3
Experimental: The activating effect of three compounds (ChemDiv ID E677-1326, E677-0945 and D715-0284) for SIRT6 was validated by conducting the following secondary assays. As previously described, D715-0284 is a stereoisomer of molecule 768382-41-8.
1. HPLC deacylation assay. SIRT6 was incubated with compounds and myristoyl-lysine peptide (corresponding to TNF-alpha sequence) at 37° C. The deacylation reactions were analyzed by reversed phase high-performance liquid chromatography on Kinetex C18 column by monitoring the formation of the deacylated product at 214 nm. […] Equally diluted DMSO served as control.
2. Fluorometric deacetylation assay. SIRT6 was incubated with compounds and fluorophore-labelled acetyl-lysine peptide (corresponding to histone H3 sequence) at 37° C. […] Results are expressed as a percentage of DMSO—treated control.
3. In vitro histone deacetylation assay. Chromatin was purified from HEK293T cells by two steps of lysis (with Nonidet P-40 lysis buffer). SIRT6 was incubated with chromatin proteins and the reaction mixture is then used for Western blot analysis. […] SIRT6 (0.5 μM) was incubated with chromatin fractions isolated from HEK293T cells in the presence of 10 micromolar NAD+ and compound D715-0284 or DMSO (control) at 37° C.

Structure (SMILES) | % Activity (SIRT6 [1]) [%] | further results
Cc1cccc2sc(N(CCCN(C)C)C(=O)CCOc3ccccc3)nc12 [E677-0945] | – | % activity 20 uM (SIRT6 [1]): 263%; % activity Max. conc. 100 uM (SIRT6 [1]): 255%; activating effect for SIRT6 in secondary assays (in words) (SIRT6 [2]): validated
CN(C)CCCN(C(=O)CCOc1ccccc1)c1nc2c(F)cccc2s1 [E677-1326] | – | % activity 20 uM (SIRT6 [1]): 287%; % activity Max. conc. 100 uM (SIRT6 [1]): 252%; activating effect for SIRT6 in secondary assays (in words) (SIRT6 [2]): validated
COc1cc(C(=O)Oc2ccc3c4c(c(=O)oc3c2)CCCC4)cc(OC)c1OC [Y040-2478] | 95 | –
COC(=O)Cc1c(C)c2ccc(OC(=O)c3cccc(OC)c3)c(C)c2oc1=O [Y040-3572] | 396 | –
CCOc1ccccc1C(=O)Oc1ccc2c(C)c(CC(=O)OC)c(=O)oc2c1C [Y040-3573] | 50 | –
C=C1Cc2cc(C)cc(CC(=O)[C@@H](NS(=C)(=C)c3ccc(C)cc3)[C@H](C)CC)c2C2=C1CCC2 [Y040-3625] | – | % activity Max. conc. 100 uM (SIRT6 [1]): 113%
CCOc1ccccc1C(=O)Oc1ccc2c3c(c(=O)oc2c1)CCCC3 [Y040-4190] | 168 | –
Cc1ccc(C(=O)Oc2ccc3c4c(c(=O)oc3c2C)CCC4)cc1 [Y040-4193] | 53 | –
CCCCCCc1c(C)c2ccc(OC(C)=O)c(C)c2oc1=O [Y040-4544] | 33 | –
CCCCCCc1c(C)c2cc(C)c(OC(=O)c3cccc(OC)c3)cc2oc1=O [Y040-7591] | 63 | –
Cc1c(Cc2ccccc2)c(=O)oc2c(C)c(OC(=O)C3CCCCC3)ccc12 [Y040-7709] | 145 | –

Second part, led by results:

% Activity (SIRT6 [1]) [%] | Structure (SMILES) | further results
41 | Cc1c(Cc2ccccc2)c(=O)oc2c(C)c(OC(=O)c3ccccc3)ccc12 [Y040-7711] | –
21 | COc1ccc(C(=O)Oc2ccc3c(C)c(Cc4ccccc4)c(=O)oc3c2C)cc1 [Y040-7713] | –
21 | Cc1c(Cc2ccccc2)c(=O)oc2cc(OCc3c(Cl)cccc3Cl)ccc12 [Y040-7747] | –
212 | Cc1c(Cc2ccccc2)c(=O)oc2cc(OC(=O)c3ccccc3)ccc12 [Y040-7755] | –
61 | Cc1c(Cc2ccccc2)c(=O)oc2cc(OC(=O)C3CCCCC3)ccc12 [Y040-7756] | –
485 | COc1ccc(C(=O)Oc2ccc3c4c(c(=O)oc3c2)CCCC4)cc1 [Y040-8182] | –
80 | CCOC(=O)CCc1c(C)c2ccc(OC(=O)c3cccc(OC)c3)c(C)c2oc1=O [Y041-1765] | –
21 | CCCCCCc1c(C)c2cc3c(-c4ccc(F)cc4)coc3c(C)c2oc1=O [Y041-6500] | –
